Biological target: ROCK2 (Homo sapiens (Human), UniProt O75116)
Experiment: ROCK2 assay (peptide phosphorylation, LABCHIP 3000 Reader)
Assay type: biochemical
Details: 5 μM ATP, 1.5 μM peptide substrate
Protocol: The effectiveness of compounds of the present invention as ROCK inhibitors can be determined in a 30 μL, assay containing 20 mM HEPES, pH 7.5, 20 mM MgCl2, 0.015% Brij-35, 4 mM DTT, 5 μM ATP and 1.5 μM peptide substrate (FITC-AHA-AKRRRLSSLRA-OH). Compounds were dissolved in DMSO so that the final concentration of DMSO was <2%, and the reaction was initiated with Rho kinase variants. After incubation, the reaction was terminated by the addition of EDTA and the phosphorylated and non-phosphorylated peptides separated using a LABCHIP® 3000 Reader (Caliper Life Sciences). […] Compounds were tested in dose-response format, and the inhibition of kinase activity was calculated at each concentration of compound. The inhibition data were fit using a curve-fitting program to determine the IC50; i.e., the concentration of compound required to inhibit 50% of kinase activity.
Representative Examples were tested in the ROCK2 assay described above and found having ROCK2 inhibitory activity.

ROCK2, sequence (O75116 whole entry, species assumed): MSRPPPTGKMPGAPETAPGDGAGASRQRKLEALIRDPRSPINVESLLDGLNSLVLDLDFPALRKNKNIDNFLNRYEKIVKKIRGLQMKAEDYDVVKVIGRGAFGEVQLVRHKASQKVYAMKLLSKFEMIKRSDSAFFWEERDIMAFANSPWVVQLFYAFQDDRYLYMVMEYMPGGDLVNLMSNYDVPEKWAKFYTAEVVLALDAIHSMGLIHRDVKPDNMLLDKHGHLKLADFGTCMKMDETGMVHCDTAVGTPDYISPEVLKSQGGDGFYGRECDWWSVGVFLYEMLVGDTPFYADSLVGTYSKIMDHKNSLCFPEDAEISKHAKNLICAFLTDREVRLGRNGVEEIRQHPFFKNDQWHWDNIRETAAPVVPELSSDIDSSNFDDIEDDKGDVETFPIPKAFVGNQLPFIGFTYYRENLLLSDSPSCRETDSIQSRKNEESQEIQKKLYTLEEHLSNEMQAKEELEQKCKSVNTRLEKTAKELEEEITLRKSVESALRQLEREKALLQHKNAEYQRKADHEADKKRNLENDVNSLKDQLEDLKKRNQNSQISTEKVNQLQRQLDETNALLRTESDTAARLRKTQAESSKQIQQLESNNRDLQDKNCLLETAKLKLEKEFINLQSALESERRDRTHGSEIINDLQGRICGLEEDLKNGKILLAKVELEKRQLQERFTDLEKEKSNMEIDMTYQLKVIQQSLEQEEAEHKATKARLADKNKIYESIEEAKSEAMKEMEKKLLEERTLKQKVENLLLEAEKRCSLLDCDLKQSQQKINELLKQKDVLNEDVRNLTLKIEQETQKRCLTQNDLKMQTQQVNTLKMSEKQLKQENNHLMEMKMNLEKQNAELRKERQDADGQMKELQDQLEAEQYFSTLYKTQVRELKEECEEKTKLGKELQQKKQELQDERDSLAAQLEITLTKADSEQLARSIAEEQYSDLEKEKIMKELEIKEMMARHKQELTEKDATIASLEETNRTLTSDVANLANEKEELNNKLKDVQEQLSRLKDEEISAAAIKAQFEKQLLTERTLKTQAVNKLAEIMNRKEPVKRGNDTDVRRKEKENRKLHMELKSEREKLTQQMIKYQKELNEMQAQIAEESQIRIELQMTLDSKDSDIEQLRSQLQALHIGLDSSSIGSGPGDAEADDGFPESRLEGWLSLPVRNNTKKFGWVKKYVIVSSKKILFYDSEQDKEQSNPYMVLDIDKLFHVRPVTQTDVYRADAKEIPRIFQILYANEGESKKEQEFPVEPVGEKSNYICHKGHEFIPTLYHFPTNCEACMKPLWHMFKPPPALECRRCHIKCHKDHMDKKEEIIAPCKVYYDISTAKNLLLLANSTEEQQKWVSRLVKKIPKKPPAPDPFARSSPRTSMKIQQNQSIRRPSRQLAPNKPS

| IC50 [nM] | Structure (SMILES) |
| --- | --- |
| 5 to 50 | COc1cccc(C(C)n2cnn(-c3ccc(-c4cn[nH]c4)cc3)c2=O)c1 (single isomer, unassigned) [Example 47, 1-(4-(1H-pyrazol-4-yl)phenyl)-4-(1-(3-methoxyphenyl)ethyl)-1H-1,2,4-triazol-5(4H)-one] |
| < 5 | COc1cccc(C(C)n2cnn(-c3ccc(-c4cn[nH]c4)cc3)c2=O)c1 (single isomer, unassigned) [Example 48, 1-(4-(1H-pyrazol-4-yl)phenyl)-4-(1-(3-methoxyphenyl)ethyl)-1H-1,2,4-triazol-5(4H)-one] |
| 5 to 50 | COc1cccc(C(C)n2c(C)nn(-c3ccc(-c4cn[nH]c4)cc3)c2=O)c1 (single isomer, unassigned) [Example 118, 1-(4-(1H-pyrazol-4-yl)phenyl)-4-(1-(3-methoxyphenyl)ethyl)-3-methyl-1H-1,2,4-triazol-5(4H)-one] |
| 5 to 50 | COc1cccc(C(C)n2c(C)nn(-c3ccc(-c4cn[nH]c4)cc3)c2=O)c1 (single isomer, unassigned) [Example 119, 1-(4-(1H-pyrazol-4-yl)phenyl)-4-(1-(3-methoxyphenyl)ethyl)-3-methyl-1H-1,2,4-triazol-5(4H)-one] |
| 5 to 50 | CC(O)c1nn(-c2ccc(-c3cn[nH]c3)cc2)c(=O)n1Cc1ccccc1 (single isomer, unassigned) [Example 140, 1-(4-(1H-pyrazol-4-yl)phenyl)-4-benzyl-3-(1-hydroxyethyl)-1H-1,2,4-triazol-5(4H)-one] |
| 5 to 50 | CC(O)c1nn(-c2ccc(-c3cn[nH]c3)cc2)c(=O)n1Cc1ccccc1 (single isomer, unassigned) [Example 141, 1-(4-(1H-pyrazol-4-yl)phenyl)-4-benzyl-3-(1-hydroxyethyl)-1H-1,2,4-triazol-5(4H)-one] |
| 50 to 250 | COc1cc(Cn2c(C(C)O)nn(-c3ccc(-c4cn[nH]c4)cc3)c2=O)cc(OC)c1 (single isomer, unassigned) [Example 147, 1-(4-(1H-pyrazol-4-yl)phenyl)-4-(3,5-dimethoxybenzyl)-3-(1-hydroxyethyl)-1H-1,2,4-triazol-5(4H)-one] |
| 50 to 250 | O=c1n(-c2ccc(-c3cn[nH]c3)cc2)cnn1Cc1cccc(F)c1 [Example 1, 4-(4-(1H-pyrazol-4-yl)phenyl)-1-(3-fluorobenzyl)-1H-1,2,4-triazol-5(4H)-one] |
| 50 to 250 | O=c1n(-c2ccc(-c3cn[nH]c3)cc2)cnn1Cc1ccccc1 [Example 2, 4-(4-(1H-pyrazol-4-yl)phenyl)-1-benzyl-1H-1,2,4-triazol-5(4H)-one] |
| 50 to 250 | COc1cccc(Cn2ncn(-c3ccc(-c4cn[nH]c4)cc3)c2=O)c1 [Example 3, 4-(4-(1H-pyrazol-4-yl)phenyl)-1-(3-methoxybenzyl)-1H-1,2,4-triazol-5(4H)-one] |
| 250 to 2000 | O=c1n(-c2ccc(-c3cn[nH]c3)cc2)cnn1Cc1cc(F)ccc1F [Example 4, 4-(4-(1H-pyrazol-4-yl)phenyl)-1-(2,5-difluorobenzyl)-1H-1,2,4-triazol-5(4H)-one] |
| 50 to 250 | COc1cc(-n2cnn(Cc3ccccc3)c2=O)ccc1-c1cn[nH]c1 [Example 5, 1-benzyl-4-(3-methoxy-4-(1H-pyrazol-4-yl)phenyl)-1H-1,2,4-triazol-5(4H)-one] |
| 5 to 50 | COc1cccc(Cn2ncn(-c3ccc(-c4cn[nH]c4)c(OC)c3)c2=O)c1 [Example 6, 4-(3-methoxy-4-(1H-pyrazol-4-yl)phenyl)-1-(3-methoxybenzyl)-1H-1,2,4-triazol-5(4H)-one] |
| 50 to 250 | COc1cc(-n2cnn(Cc3cccc(F)c3)c2=O)ccc1-c1cn[nH]c1 [Example 7, 1-(3-fluorobenzyl)-4-(3-methoxy-4-(1H-pyrazol-4-yl)phenyl)-1H-1,2,4-triazol-5(4H)-one] |
| 250 to 2000 | COc1cc(-n2cnn(C(C)c3ccccc3)c2=O)ccc1-c1cn[nH]c1 (centres unmarked) [Example 8, 4-(3-methoxy-4-(1H-pyrazol-4-yl)phenyl)-1-(1-phenylethyl)-1H-1,2,4-triazol-5(4H)-one] |
| 50 to 250 | COc1cc(-n2cnn(CCc3ccccc3)c2=O)ccc1-c1cn[nH]c1 [Example 9, 4-(3-methoxy-4-(1H-pyrazol-4-yl)phenyl)-1-phenethyl-1H-1,2,4-triazol-5(4H)-one] |
| 250 to 2000 | COc1cc(-c2cn[nH]c2)ccc1-n1cnn(Cc2ccccc2)c1=O [Example 10, 1-benzyl-4-(2-methoxy-4-(1H-pyrazol-4-yl)phenyl)-1H-1,2,4-triazol-5(4H)-one] |
| 50 to 250 | COc1cccc(Cn2ncn(-c3ccc(-c4cn[nH]c4)cc3OC)c2=O)c1 [Example 11, 4-(2-methoxy-4-(1H-pyrazol-4-yl)phenyl)-1-(3-methoxybenzyl)-1H-1,2,4-triazol-5(4H)-one] |
| 50 to 250 | COc1cc(-c2cn[nH]c2)ccc1-n1cnn(Cc2cccc(F)c2)c1=O [Example 12, 1-(3-fluorobenzyl)-4-(2-methoxy-4-(1H-pyrazol-4-yl)phenyl)-1H-1,2,4-triazol-5(4H)-one] |
| 250 to 2000 | COc1cc(-c2cn[nH]c2)ccc1-n1cnn(Cc2cc(F)ccc2F)c1=O [Example 13, 1-(2,5-difluorobenzyl)-4-(2-methoxy-4-(1H-pyrazol-4-yl)phenyl)-1H-1,2,4-triazol-5(4H)-one] |
| 50 to 250 | COc1cc(-c2cn[nH]c2)ccc1-n1cnn(CCc2ccccc2)c1=O [Example 14, 4-(2-methoxy-4-(1H-pyrazol-4-yl)phenyl)-1-phenethyl-1H-1,2,4-triazol-5(4H)-one] |
| 250 to 2000 | CC(c1ccccc1)n1ncn(-c2ccc(-c3cn[nH]c3)cc2)c1=O (centres unmarked) [Example 15, 4-(4-(1H-pyrazol-4-yl)phenyl)-1-(1-phenylethyl)-1H-1,2,4-triazol-5(4H)-one] |
| 50 to 250 | COc1cc(-c2cn[nH]c2)ccc1-n1cnn(Cc2cc(F)ccc2F)c1=O [Example 16, 1-(2,5-difluorobenzyl)-4-(2-methoxy-4-(1H-pyrazol-4-yl)phenyl)-1H-1,2,4-triazol-5(4H)-one] |
| 5 to 50 | O=c1n(Cc2ccccc2)cnn1-c1ccc(-c2cn[nH]c2)cc1 [Example 17, 1-(4-(1H-pyrazol-4-yl)phenyl)-4-benzyl-1H-1,2,4-triazol-5(4H)-one] |
| < 5 | COc1cccc(Cn2cnn(-c3ccc(-c4cn[nH]c4)cc3)c2=O)c1 [Example 18, 1-(4-(1H-pyrazol-4-yl)phenyl)-4-(3-methoxybenzyl)-1H-1,2,4-triazol-5(4H)-one] |
| < 5 | O=c1n(Cc2cccc(F)c2)cnn1-c1ccc(-c2cn[nH]c2)cc1 [Example 19, 1-(4-(1H-pyrazol-4-yl)phenyl)-4-(3-fluorobenzyl)-1H-1,2,4-triazol-5(4H)-one] |
| 5 to 50 | O=c1n(Cc2cc(F)ccc2F)cnn1-c1ccc(-c2cn[nH]c2)cc1 [Example 20, 1-(4-(1H-pyrazol-4-yl)phenyl)-4-(2,5-difluorobenzyl)-1H-1,2,4-triazol-5(4H)-one] |
| < 5 | COc1cc(F)cc(Cn2cnn(-c3ccc(-c4cn[nH]c4)cc3)c2=O)c1 [Example 21, 1-(4-(1H-pyrazol-4-yl)phenyl)-4-(3-fluoro-5-methoxybenzyl)-1H-1,2,4-triazol-5(4H)-one] |
| < 5 | CC(c1ccccc1)n1cnn(-c2ccc(-c3cn[nH]c3)cc2)c1=O (centres unmarked) [Example 22, 1-(4-(1H-pyrazol-4-yl)phenyl)-4-(1-phenylethyl)-1H-1,2,4-triazol-5(4H)-one] |

From US10562887B2, “Triazolones and tetrazolones as inhibitors of ROCK” (BRISTOL-MYERS SQUIBB COMPANY, priority 2016, dated 2020)
